Measured values published in the supplement of paper PMC10307832.

Assays:
Experiment in all cases: relative viability (nuclei count vs DMSO), 5 days (fraction); higher = more cells survive
Mirin + AZD7762 = compound: N=C1NC(=O)/C(=C/c2ccc(O)cc2)S1 [Mirin] + NC(=O)Nc1cc(-c2cccc(F)c2)sc1C(=O)N[C@H]1CCCNC1 [AZD7762] (partner 0.2 µM)
Procedure, shortened: (§1)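 Lung cancer cell lines, seeded in 1536-well plates, were treated the following day by pin tool with a single drug or with five library-drug doses (not always all listed) in √10 steps on top of a fixed anchor-drug dose. Cells were fixed and nuclei stained in one step after 5 days, and nuclei were counted. Relative viability is the nuclei count for treated wells divided by that for vehicle wells, reported as medians of duplicate plates.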

Mirin + Navitoclax = compound: N=C1NC(=O)/C(=C/c2ccc(O)cc2)S1 [Mirin] + CC1(C)CCC(c2ccc(Cl)cc2)=C(CN2CCN(c3ccc(C(=O)NS(=O)(=O)c4ccc(N[C@H](CCN5CCOCC5)CSc5ccccc5)c(S(=O)(=O)C(F)(F)F)c4)cc3)CC2)C1 [Navitoclax] (partner 0.5 µM)
Procedure, shortened: as §1

[1] = compound: CCn1c(-c2nonc2N)nc2cnc(Oc3cccc(NC(=O)c4ccc(OCCN5CCOCC5)cc4)c3)cc21 + Cc1cc(Nc2cc(N3CCN(C)CC3)nc(Sc3ccc(NC(=O)C4CC4)cc3)n2)n[nH]1 [Tozasertib] (partner 0.1 µM)
Procedure, shortened: as §1

[2] = compound: CCC1=CN=CN=C1N2CCN(CC2)CC3=NC4=C(N3)C=C(C=C4)C(F)(F)F + CC(=O)c1c(C)c2cnc(Nc3ccc(N4CCNCC4)cn3)nc2n(C2CCCC2)c1=O [Palbociclib] (partner 0.5 µM)
Procedure, shortened: as §1

Cell Line | relative viability (Mirin + AZD7762; first compound 0.25 µM) | relative viability (Mirin + AZD7762; first compound 0.7906 µM) | relative viability (Mirin + AZD7762; first compound 2.5 µM) | relative viability (Mirin + AZD7762; first compound 7.906 µM) | relative viability (Mirin + AZD7762; first compound 25 µM) | relative viability (Mirin + Navitoclax; first compound 0.25 µM) | relative viability (Mirin + Navitoclax; first compound 0.7906 µM) | relative viability (Mirin + Navitoclax; first compound 2.5 µM) | relative viability (Mirin + Navitoclax; first compound 7.906 µM) | relative viability (Mirin + Navitoclax; first compound 25 µM) | relative viability ([1]; first compound 0.04 µM) | relative viability ([1]; first compound 0.1265 µM) | relative viability ([1]; first compound 0.4 µM) | relative viability ([1]; first compound 1.265 µM) | relative viability ([1]; first compound 4 µM) | relative viability ([2]; first compound 0.04 µM) | relative viability ([2]; first compound 0.1265 µM) | relative viability ([2]; first compound 0.4 µM) | relative viability ([2]; first compound 1.265 µM) | relative viability ([2]; first compound 4 µM)
201T | 0.581 | 0.754 | 0.673 | 0.441 | 0.552 | 1.18 | 1.27 | 1.18 | 1.32 | 1.33 | 1.02 | 0.937 | 0.958 | 0.919 | 1.01 | 0.331 | 0.348 | 0.367 | 0.375 | 0.344
A549 |  |  |  |  |  | 1.09 | 1.38 | 1.08 | 1.32 | 1.31 |  |  |  |  |  |  |  |  |  | 
A-427 | 0.772 | 0.879 | 0.701 | 0.737 | 0.636 | 0.942 |  | 0.955 | 0.941 | 1.11 | 0.189 | 0.234 | 0.228 | 0.182 | 0.186 | 0.451 | 0.489 | 0.499 | 0.479 | 0.475
ABC-1 | 0.603 | 0.929 | 0.628 | 0.847 | 0.683 |  |  |  |  |  | 0.137 | 0.153 | 0.156 | 0.209 | 0.176 |  |  | 0.543 | 0.628 | 0.547
BEN | 0.711 | 0.711 | 0.735 | 0.574 | 0.494 | 0.0987 | 0.0819 | 0.0674 | 0.0737 | 0.0559 | 0.453 | 0.415 | 0.518 | 0.494 | 0.357 | 0.454 | 0.487 | 0.469 | 0.437 | 0.464
CAL-12T | 0.681 | 0.858 | 0.633 | 0.717 | 0.831 | 0.854 | 1.49 | 1.26 | 1.26 | 1.66 | 0.433 | 0.297 | 0.28 | 0.186 | 0.189 | 0.558 | 0.409 | 0.601 | 0.288 | 0.556
COR-L23 |  |  |  |  |  | 1.02 | 1.06 | 1.04 | 1.07 | 0.966 | 0.185 | 0.165 | 0.154 | 0.12 | 0.135 | 0.234 | 0.298 | 0.259 | 0.254 | 0.282
COR-L 105 |  |  |  |  |  | 1.02 | 0.817 | 0.884 | 0.703 | 0.719 | 0.339 | 0.3 | 0.308 | 0.308 | 0.308 | 0.416 | 0.444 | 0.371 | 0.363 | 0.428
Calu-6 |  |  |  |  |  | 0.879 | 1 | 0.839 | 0.806 | 0.794 |  |  |  |  |  |  |  |  |  | 
ChaGo-K-1 | 0.832 | 0.825 | 0.868 | 0.835 | 0.755 | 0.974 |  | 0.997 | 0.849 | 0.85 | 0.242 | 0.244 | 0.232 | 0.211 | 0.165 | 0.976 | 0.946 | 0.929 | 0.907 | 0.881
EBC-1 |  |  |  |  |  | 0.419 | 0.479 | 0.456 | 0.368 | 0.144 |  |  |  |  |  |  |  |  |  | 
EKVX | 0.631 | 0.709 | 0.771 | 0.727 | 0.689 | 1.01 | 0.932 | 1.11 | 0.875 | 0.968 | 0.423 | 0.473 | 0.46 | 0.216 | 0.265 | 0.405 | 0.387 | 0.325 | 0.337 | 0.377
EMC-BAC-2 | 0.977 | 1.1 | 1.26 | 0.92 | 1.05 | 1.16 | 1.29 | 1.17 | 1.08 | 1.17 | 0.231 | 0.283 | 0.249 | 0.165 | 0.155 | 0.483 | 0.532 | 0.533 | 0.463 | 0.554
EPLC-272H | 0.239 |  | 0.23 | 0.227 | 0.161 | 1.08 |  | 1.09 | 0.965 | 0.808 | 0.152 | 0.394 | 0.26 | 0.306 | 0.223 | 0.338 | 0.302 | 0.324 | 0.318 | 0.327
H3255 | 0.899 | 0.958 | 0.943 | 0.738 | 0.867 | 0.499 | 0.59 | 0.628 | 0.513 | 0.47 | 0.758 | 0.5 | 0.706 | 0.377 | 0.325 | 0.313 | 0.308 | 0.325 | 0.292 | 0.343
HARA | 0.257 |  | 0.47 | 0.423 | 0.353 | 1.07 | 1.21 | 1.14 | 1.28 | 1.2 | 0.11 | 0.0979 | 0.093 | 0.13 | 0.0876 | 0.281 | 0.314 | 0.283 |  | 0.295
HCC-15 | 0.589 | 0.973 | 1.33 | 1.28 | 1.18 | 0.755 | 0.689 | 0.762 | 0.713 | 0.52 | 0.451 | 0.403 | 0.417 | 0.278 | 0.258 | 0.717 | 0.723 | 0.646 | 0.612 | 0.682
HCC-44 | 1.05 | 1.22 | 1.04 | 1.03 | 1.11 | 1 | 0.967 | 0.916 | 0.945 | 0.989 | 0.841 | 0.146 | 0.373 | 0.225 | 0.188 | 0.965 | 0.956 | 0.991 | 0.937 | 0.859
HCC-78 | 0.583 | 0.863 | 0.671 | 0.658 | 0.68 | 0.758 | 0.712 | 0.866 | 0.847 | 0.674 | 0.589 |  |  | 0.532 | 0.519 | 0.447 | 0.461 | 0.477 | 0.451 | 0.468
